What all share (assay): NCI-60 cell line screen, 48 h
The subject of test [1] is DU-145 prostate.
Test [2] has as its system HS 578T breast.
The subject of test [3] is MDA-MB-231 breast.
Test [4] relates to MDA-MB-435.
For test [5], the system named is T-47D breast.

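Growth conditions: 96-well plates. Treatment: test compound, 48 hours, 5 concentrations. Analysis: linear interpolation between bracketing concentrations; unreached endpoints set to highest concentration. GI50 marks 50% less growth. The concentration for full growth arrest is given as TGI.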

Take `COc1cccc(N=Cc2c3ccccc3c(=O)n3c2oc2ccccc23)c1`: the GI50 in test [1] was 21800 nM; in test [2] it was 34900 nM; in test [3], 10200 nM; in test [4] it was 7270 nM; in test [5], above 100000 nM. Also, the TGI in test [1] was above 100 µM; in test [2] it was above 100 µM; in test [3] it was 48.7 µM; in test [4], 46.4 µM; in test [5], above 100 µM.
Regarding `CCCNC(=S)N/N=C(\C)c1ccccn1`, the GI50 in test [1] is 1100 nM; in test [2] it was 1420 nM; in test [3] it was 75.7 nM; in test [4], 530 nM; in test [5] it was 27.4 nM. In addition, the TGI in test [1] is above 42.9 µM; in test [2], above 100 µM; in test [3] it was above 100 µM; in test [4], above 100 µM; in test [5] it was above 100 µM.
In the case of `O=[N+]([O-])c1ccc2nnnn2c1`, the TGI in test [1] is above 100 µM; in test [2], above 100 µM; in test [3], 96.4 µM; in test [4], 32.8 µM; in test [5], above 100 µM.
`O=C(O)C(Sc1ccc(Cl)cc1)Sc1ccc(Cl)cc1`: the TGI in test [1], in test [2], in test [3], in test [4] and in test [5] was above 100 µM throughout.
Take `COc1cc(Cn2c(-c3ccccc3)cc3c2-c2oncc2CC3)cc(OC)c1OC`: the GI50 is 1730 nM in test [1]; 510 nM in test [2]; 2820 nM in test [3]; 248 nM in test [4]; 1070 nM in test [5]. In addition, the TGI was above 100 µM in test [1]; above 100 µM in test [2]; above 100 µM in test [3]; 0.905 µM in test [4]; 81.2 µM in test [5].
For the compound `COc1ccc(-n2cc(-c3cc(OC)c(OC)c(OC)c3)[nH]c2=S)cc1OC`, the GI50 in test [1], in test [2], in test [3], in test [4] and in test [5] was above 100000 nM in each case. The TGI in test [1], in test [2], in test [3], in test [4] and in test [5] was above 100 µM in each case.
With `COc1cc([C@@H]2c3cc4c(cc3C(O[C@@H]3O[C@@H]5CO[C@@H](c6cccs6)OC5[C@H](O)[C@H]3O)C3COC(=O)[C@@H]32)OCO4)cc(OC)c1O` (some centres undefined), the GI50 in test [1] is 45.9 nM; in test [2], 241 nM; in test [3], 267 nM; in test [4], 261 nM; in test [5] it was 20.7 nM. Moreover, the TGI in test [1] worked out at 0.369 µM; in test [2] it was 5.03 µM; in test [3], 3.58 µM; in test [4], 2.12 µM; in test [5] it was 0.434 µM.
As to `COc1cc(-c2c(C#N)c(N)n3c(nc4ccccc43)c2C#N)cc(Br)c1OC`, the results for the GI50 in test [2], in test [3] and in test [4] were 2710 nM, 2460 nM and above 100000 nM, respectively. The TGI in test [2], in test [3] and in test [4] was above 100 µM in each case.
Regarding `COc1cc(C(=O)O[C@H](C(N)=O)[C@]2(C)CO2)c2ccccc2c1`, the GI50 is 16600 nM in test [2], 13000 nM in test [3], 23700 nM in test [4] and 10700 nM in test [5]. Moreover, the TGI in test [2] came to 41 µM; in test [3], 27.7 µM; in test [4] it was 53.2 µM; in test [5], 27.3 µM.
Consider `Cc1c2c(nn1-c1ccc(S(=O)(=O)/N=C3\SCC(=O)N3C(=O)c3ccccc3)cc1)-c1ccccc1CC2`, for which the GI50 in test [1] was 38600 nM; in test [3] it was 24000 nM; in test [4], 26100 nM. The values for the TGI in test [1], in test [3] and in test [4] were above 100 µM, 58.7 µM and 60.8 µM, respectively.
`CC[C@H](C)[C@H](NC(=O)[C@H]1CCCCN1C)C(=O)N(C)[C@H](CCc1nc(C(=O)N[C@@H](Cc2ccccc2)C[C@H](C)C(=O)OC)cs1)C(C)C`: the GI50 was 351 nM in test [1], 322 nM in test [2], 360 nM in test [3] and 36.3 nM in test [4]. Besides, the TGI in test [1] is above 25 µM; in test [2], 5.29 µM; in test [3], 1.8 µM; in test [4], 0.185 µM.
For `CCCCn1c(-c2ccc(C(=O)O/N=C(\N)c3ccc(OC)cc3)cc2)nc(-c2ccccc2)c1-c1ccccc1`, the GI50 was 1270 nM in test [1], 1740 nM in test [4] and 1920 nM in test [5]. The figures for the TGI in test [1], in test [4] and in test [5] were 2.59 µM, 3.28 µM and 4.59 µM, respectively.

Source of the values: PubChem BioAssay (NCI).
